Legend:
[1] = tested on: human foreskin primary keratinocytes; assay: Keratinocyte scratch assay with 4-AP, NGF and NGF-antibody; assay type: cell-based; conditions: at 12 hours
Experimental: Keratinocytes (7×10^4 cells/well) with KC medium were seeded on collagen-I pre-coated 96-well ImageLock microplate for 6 hours. For the drug treatment cells were pretreated with 4-AP prior to coating for 16-18 hours. Next, the wound scratch was created using IncuCyte automated system. After scratches the cells washed with PBS and the respective cells medium was added with individual 1 mM of 4-AP and 200 ng/ml of NGF (MyBioSource, Inc., Catlog No. MBS7114974) in keratinocytes medium and combination of 1 mM of 4-AP & 200 ng/mL NGF with or without 10 μg/ml of NGF-antibody (ThermoFisher Scientific, Catlog No. MA5-32067). The plate was incubated in Incucyte automated imaging system, wound healing and cells migration imaged for every hour until 24 hour and analyzed for percent of closure as described above procedure.

[2] = tested on: keratinocytes co-cultured with SCs (10:1); assay: Co-culture scratch assay, keratinocytes with Schwann cells; assay type: cell-based, human
Experimental: To determine the influence of Schwann cells and fibroblast on keratinocytes migration and proliferation wound healing scratch assay was conducted. The co-culture experiment performed in Keratinocytes to either Schwann cells or fibroblasts in a ratio of 10:1 with same proposition of their respective medium were seeded on 96-well ImageLock microplate for 6 hours and the wells were pre-coated with collagen-I plate. For the drug treatment cells were pretreated with 4-AP prior to coating for 16-18 hours. Next, the wound scratch was created and treated cells with and without 4-AP in medium. Imaged for every hour until 24 hour and analyzed for percent of closure as described above procedure.

C57BL/6 mice = assay: Full thickness excisional splinted wound model: wound closure and histomorphometry; assay type: in vivo; conditions: for wound closure: daily systemic 4-AP
Description: The effect of 4-AP in promoting cutaneous wound healing and tissue regeneration was investigated using a full thickness excisional wound model (FIG. 3A). Excisional wounds (5 mm) were splinted with silicone rings to prevent wound contraction, in 10-wk-old male C57BL/6 mice, which were then randomized and treated with either saline or systemic 4-AP (dosage to correspond to human dosage) daily for 14 days. Wounds were monitored by digital imaging for morphometry, percentage of wound healing, and tissue regeneration on days 3, 5, 7, 9, 12 and 14 post wound (PWD) (when tissue was harvested).
Male C57BL/6 (10 week) mice were purchased from the Jackson Laboratory (Bar Harbor, ME USA). Mice were anesthetized by intraperitoneal injection of ketamine (60 mg/kg) and xylazine (4 mg/kg) body weight, and the dorsal skin hair was removed using mechanical shaver and then, applied the hair removal cream. Skin was disinfected using 70% ethanol and betadine for 3 times. The dorsal skin was folded and raised cranially and caudally at midline using index fingers and thumbs, and place the animal in a lateral position and two 5-mm wounds created in their dorsal skin using sterile biopsy punch. A 5-mm-diameter silicone ring was then placed and sutured around the each wound to restrict contraction. After wound creation and sutured silicone ring, wound site was photographed, and wound surface was covered with a Tegaderm (3M) sterile transparent dressing. After surgery, mice was administered SR Buprenorphine (0.05 mg/kg) as a post-operative analgesia. The mice were randomized into the following two groups: a control group (vehicle control), which received 100 μl of saline, and a 4-AP group. In total […]/mouse/daily 4-AP in 90-110 μl of saline intraperitoneally (IP) was administered until day 14 post wound. Digital imaging of the wound was used was determined for each wound healing by quantification of wound area based on digital pictures taken from day 0 to day 14 (days 0, 3, 5, 7, 9, 12 and 14) post-surgery (FIG. 3A). Wound areas were measured in pixel using ImageJ-1.53e software (National Institutes of Health, USA) and normalized/corrected each wound area with reference scale and wound healing expressed as percentage with respect to day 0 wound, using following formula.
At the day 14 wound skin sample were collected after mice were euthanized using CO2 and skin samples were excised, either flash frozen or fixed in a buffered 4% formaldehyde solution at 4° C., overnight for samples to be embedded in paraffin and the wound skin paraffin blocks were processed into serially cut into […] sections on a Microtome (Leica RM2235, Germany). The wound skin sections were used for morphometric analysis and immunofluorescence staining. […] sectioned wound skin samples of day 14 were sections were deparaffinised using xylene and ethyl alcohol and stained with hematoxylin and eosin (H&E). To evaluate the epidermis thickness, and wound induced hair follicle formation, four randomly fields of each H&E-stained sections were imaged under a light microscope (Olympus BX53, Olympus, Tokyo, Japan) at 1000 magnification. The values of each mice were averaged, and then groups were compared. To measure the wound induced hair follicles, similar to above procedure, the number of hair follicles at dermis were counted and then average value calculated for each group. To understand the collagen formation, maturation and deposition Masson's trichome analysis were performed as per manufacture instructions (Sigma-Aldrich, Catalog No.: HT15-1KT).

Q: Which results are given for Nc1ccncc1 [4-AP, 4-aminopyridine]?
A: scratch closure ([1]; 56% in control cultures, 1 mM 4-AP, 200 ng/ml NGF): 75%; scratch closure with NGF-neutralizing antibody ([1]; plus 10 μg/ml NGF-antibody): 67%; percentage of wound closure ([2]; at 15 hours, 80% in non-treated): 98%; time to scratch closure ([2]; with 4-AP, 20 hours without treatment): ≤ 15 h; re-epithelialization of wound (C57BL/6 mice; by day 14): completely re-epithelialized; wound closure (C57BL/6 mice; day 3 post wound): 22.35±0.30%; collagen deposition in dermis (Masson's Trichrome) (C57BL/6 mice; day 14, compared to saline): elevated collagen deposition; fold increase in WIHN (C57BL/6 mice; day 14, vs saline-treated mice): 1.8 fold; wound closure (C57BL/6 mice; day 14 post wound): 98.24±0.10%; thickness of newly formed epidermis (H&E) (C57BL/6 mice; day 14 wound tissue): 29.7 ± 1.3 µm; mean number of hair follicles (wound-induced hair neogenesis) (C57BL/6 mice; day 14 wound tissue, H&E): 45

— patent publication US20240024216A1, “METHODS AND MATERIALS FOR TREATING HAIR LOSS” (The Penn State Research Foundation, priority 2021, published 2024)
